Measurements published in patent publication US8426452B2, “Process for the treatment and prevention of diseases caused by fungi” (priority 2008, dated 2013).
Read-outs that look alike come from different tables or passages of the source.

How the values were obtained:
[1] = test system: S. cerevisiae strain AH109; assay: Growth inhibition of S. cerevisiae strain AH109 in YPD medium (turbidity, A600)
Method: (§1) AH109 cells or ATCC 96901 cells were inoculated into 200.0 ml of YPD to obtain an initial OD600 reading of 0.005 on a spectrophotometer. […] The yeast suspensions were placed on a shaking incubator set at 200 rpm and 30° C. for 18-24 hr (S. cerevisiae) or 10-12 hr (C. albicans), and then the extent of fungal growth was assessed by measuring the sample absorbance at 600 nm (A600 nm) on a spectrophotometer. The effect of each concentration of antifungal agent was tested in triplicate.

[2] = test system: A-431 human skin cells
Method: Cells were then incubated for 48 hr at 37° C. After incubation, the MTT viability assay was performed. This assay measures the conversion of 3-[4,5-dimethylthiazol-2-yl]-2,5-diphenyl tetrazolium bromide (MTT) into a colored product in living cells.
The MTT assay was used to determine cell viability and the LC50 value for each compound was evaluated.

[3] = test system: C. albicans strain S2; assay: Broth microdilution susceptibility testing (MIC), C. albicans strain S2; conditions: fluconazole-resistant C. albicans strain S2, RPMI medium pH 7.0, 48 hr, 30° C.; MIC = lowest concentration with 100% growth inhibition
Method: (§2) Broth Microdilution Susceptibility Testing of C. albicans:
(§3) Note that all susceptibility assays were performed in triplicate wells using sterile flat-bottom 24-well microtiter plates.

[4] = test system: C. albicans strain ATCC 96901; assay: Broth microdilution susceptibility testing (MIC), C. albicans strain ATCC 96901; conditions: fluconazole-resistant C. albicans strain ATCC 96901, RPMI medium pH 7.0, 48 hr, 30° C.; MIC = lowest concentration with 100% growth inhibition
Method: as §2, §3

[5] = test system: C. albicans strain ATCC 96901; assay: Growth inhibition of fluconazole-resistant C. albicans strain ATCC 96901 in YPD medium (turbidity, A600)
Method: as §1

[6] = Saccharomyces cerevisiae, AH109, AH109, read-out: IC50, concentration of drug required to inhibit the growth of yeast cells by 50%
[7] = Candida albicans, ATCC96901, read-out: IC50, concentration of drug required to inhibit the growth of yeast cells by 50%

SMILES | IC50 [1, 6] | Toxicity to A-431 human skin cells (MTT viability, LC50 evaluated) [2] | MIC compared with fluconazole [3] | MIC compared with fluconazole [4] | IC50 [5, 7] | IC50 ([1]; read-out: IC50, concentration of drug required to inhibit the growth of yeast cells by 50%, S. cerevisiae AH109, YPD medium, 18-24 hr, 30° C.) | IC50 ([5]; read-out: IC50, concentration of drug required to inhibit the growth of yeast cells by 50%, fluconazole-resistant C. albicans ATCC 96901, YPD medium, 10-12 hr, 30° C.)
O=C1c2ccccc2[Se](=O)N1c1ccccc1 (stereo not drawn) [ebselen se-oxide, 2-phenyl-1,2-benzisoselenazol-3(2H)-one 1-oxide] | 2.1 µM | neither compound was toxic | lower MIC values, than fluconazole | lower MIC values, than fluconazole | 4.5 µM |  | 
OC(Cn1cncn1)(Cn1cncn1)c1ccc(F)cc1F [fluconazole] | 53 µM |  |  |  | 460 µM |  | 
CC(=O)N1CCN(c2ccc(OCC3COC(Cn4ccnc4)(c4ccc(Cl)cc4Cl)O3)cc2)CC1 (stereo not drawn) [ketoconazole] | 0.54 µM |  |  |  | 0.21 µM |  | 
C[C@@H]1[C@H](O)[C@@H](C)/C=C/C=C/C=C/C=C/C=C/C=C/C=C/[C@H](O[C@@H]2O[C@H](C)[C@@H](O)[C@H](N)[C@@H]2O)C[C@@H]2O[C@](O)(C[C@@H](O)C[C@@H](O)[C@H](O)CC[C@@H](O)C[C@@H](O)CC(=O)O[C@H]1C)C[C@H](O)[C@H]2C(=O)O [amphotericin B] |  |  |  |  |  | 0.03 µM | 0.23 µM
O=c1c2ccccc2[se]n1-c1ccccc1 [ebselen, 2-phenyl-1,2-benzisoselenazol-3(2H)-one] | 4.6 µM | neither compound was toxic | lower MIC values, than fluconazole | lower MIC values, than fluconazole | 5.83 µM |  | 
CCC(C)n1ncn(-c2ccc(N3CCN(c4ccc(OCC5COC(Cn6cncn6)(c6ccc(Cl)cc6Cl)O5)cc4)CC3)cc2)c1=O (stereo not drawn) [itraconazole] | 1.13 µM |  |  |  | 0.48 µM |  | 
